Our source for the τon-MK-801 values is paper PMC13064811, “The Role of Disulfide Bonds in the GluN1 Subunit in the Early Trafficking and Functional Properties of GluN1/GluN2 and GluN1/GluN3 NMDA Receptors” (The Journal of Neuroscience, 2026).

Targets include GluN1-4a/GluN2A (Rattus norvegicus, UniProt P35439+Q00959); YFP-GluN1-1a/GluN2A (Rattus norvegicus, UniProt P35439+Q00959); YFP-GluN1-1a/GluN2B (Rattus norvegicus, UniProt P35439+Q00960); GluN1-4a/GluN2B (Rattus norvegicus, UniProt P35439+Q00960).
The target in test [1] is YFP-GluN1-1a-C420S-C454S/GluN2A (Rattus norvegicus, UniProt P35439+Q00959, C420S/C454S).
Test [2] deals with YFP-GluN1-1a-C744S-C798S/GluN2B (Rattus norvegicus, UniProt P35439+Q00960, C744S/C798S).
Test [3] concerns the target GluN1-4a-C436S-C455S/GluN2B (Rattus norvegicus, UniProt P35439+Q00960, C436S/C455S).
Test [4] deals with GluN1-4a-C744S-C798S/GluN2B (Rattus norvegicus, UniProt P35439+Q00960, C744S/C798S).
Test [5] addresses GluN1-4a-C79S-C308S/GluN2B (Rattus norvegicus, UniProt P35439+Q00960, C308S/C79S).
In test [6] the target is YFP-hGluN1-1a-C744Y/hGluN2B (Homo sapiens, UniProt Q05586+Q13224, C744Y). It counts as cell-based.
Test [7] addresses GluN1-4a-C436S-C455S/GluN2A (Rattus norvegicus, UniProt P35439+Q00959, C436S/C455S).
Test [8] concerns the target YFP-GluN1-1a-C79S-C308S/GluN2B (Rattus norvegicus, UniProt P35439+Q00960, C308S/C79S).
Another test addresses YFP-hGluN1-1a/hGluN2A (Homo sapiens, UniProt Q05586+Q12879). It counts as cell-based.
The target of test [9] is YFP-GluN1-4a-C436S-C455S/GluN2A (Rattus norvegicus, UniProt P35439+Q00959, C436S/C455S).
Chain of YFP-GluN1-4a-C436S-C455S/GluN2A (Q00959 23-1464, stated change not applied, other chains not shown): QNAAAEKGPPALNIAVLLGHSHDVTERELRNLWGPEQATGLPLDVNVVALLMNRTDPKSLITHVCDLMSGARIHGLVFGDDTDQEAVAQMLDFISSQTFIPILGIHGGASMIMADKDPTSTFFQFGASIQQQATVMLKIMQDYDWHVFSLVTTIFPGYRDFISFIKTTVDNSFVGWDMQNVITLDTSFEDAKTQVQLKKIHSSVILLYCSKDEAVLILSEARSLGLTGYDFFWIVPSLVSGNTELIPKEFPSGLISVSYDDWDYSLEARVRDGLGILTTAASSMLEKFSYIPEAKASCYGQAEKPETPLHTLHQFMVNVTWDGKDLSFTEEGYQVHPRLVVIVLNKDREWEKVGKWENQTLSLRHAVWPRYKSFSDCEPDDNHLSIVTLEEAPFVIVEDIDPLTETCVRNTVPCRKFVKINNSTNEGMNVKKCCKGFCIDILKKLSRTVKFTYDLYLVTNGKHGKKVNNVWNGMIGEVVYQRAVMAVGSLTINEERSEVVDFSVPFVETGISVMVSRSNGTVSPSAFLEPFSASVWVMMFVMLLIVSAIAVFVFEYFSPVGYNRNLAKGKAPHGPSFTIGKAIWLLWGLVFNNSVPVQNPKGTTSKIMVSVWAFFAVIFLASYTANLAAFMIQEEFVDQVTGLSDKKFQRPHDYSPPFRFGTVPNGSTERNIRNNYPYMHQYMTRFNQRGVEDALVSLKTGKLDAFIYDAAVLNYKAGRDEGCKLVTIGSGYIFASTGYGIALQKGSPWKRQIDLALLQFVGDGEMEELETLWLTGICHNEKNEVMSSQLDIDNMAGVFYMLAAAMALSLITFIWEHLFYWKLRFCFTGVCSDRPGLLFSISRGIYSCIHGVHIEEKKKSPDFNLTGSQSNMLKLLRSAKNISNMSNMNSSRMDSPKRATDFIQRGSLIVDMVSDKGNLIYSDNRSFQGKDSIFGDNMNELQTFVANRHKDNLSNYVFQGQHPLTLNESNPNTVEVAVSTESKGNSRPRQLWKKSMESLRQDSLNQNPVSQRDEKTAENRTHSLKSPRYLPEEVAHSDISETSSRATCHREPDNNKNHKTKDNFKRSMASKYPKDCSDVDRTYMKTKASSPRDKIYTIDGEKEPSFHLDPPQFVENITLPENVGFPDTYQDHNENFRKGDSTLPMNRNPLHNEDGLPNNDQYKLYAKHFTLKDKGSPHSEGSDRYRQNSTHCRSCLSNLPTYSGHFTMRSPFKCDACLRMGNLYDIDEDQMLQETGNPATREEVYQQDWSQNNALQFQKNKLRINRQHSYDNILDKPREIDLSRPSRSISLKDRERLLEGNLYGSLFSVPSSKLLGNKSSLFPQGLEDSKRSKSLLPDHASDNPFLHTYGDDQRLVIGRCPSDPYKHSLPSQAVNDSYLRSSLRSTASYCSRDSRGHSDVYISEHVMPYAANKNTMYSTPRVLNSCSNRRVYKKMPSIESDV
For test [10], the target named is GluN1-4a-C744S-C798S/GluN2A (Rattus norvegicus, UniProt P35439+Q00959, C744S/C798S).
The target in test [11] is GluN1-4a-C420S-C454S/GluN2A (Rattus norvegicus, UniProt P35439+Q00959, C420S/C454S).
The target in test [12] is YFP-GluN1-1a-C79S-C308S/GluN2A (Rattus norvegicus, UniProt P35439+Q00959, C308S/C79S).
Test [13] addresses YFP-GluN1-1a-C744S-C798S/GluN2A (Rattus norvegicus, UniProt P35439+Q00959, C744S/C798S).
Test [14] deals with YFP-GluN1-4a-C436S-C455S/GluN2B (Rattus norvegicus, UniProt P35439+Q00960, C436S/C455S).
Another test addresses YFP-hGluN1-1a/hGluN2B (Homo sapiens, UniProt Q05586+Q13224). The format is cell-based.
Test [15] addresses YFP-hGluN1-1a-C744Y/hGluN2A (Homo sapiens, UniProt Q05586+Q12879, C744Y). The format is cell-based.
Test [16] concerns the target GluN1-4a-C79S-C308S/GluN2A (Rattus norvegicus, UniProt P35439+Q00959, C308S/C79S).
Test [17] addresses YFP-GluN1-1a-C420S-C454S/GluN2B (Rattus norvegicus, UniProt P35439+Q00960, C420S/C454S).

Chain of GluN1-4a-C79S-C308S/GluN2A (Q00959 23-1464, other chains not shown): as the sequence (Q00959 23-1464, stated change not applied, other chains not shown) above
Chain of GluN1-4a-C436S-C455S/GluN2A (Q00959 23-1464, stated change not applied, other chains not shown): as above

With `C[C@]12N[C@H](Cc3ccccc31)c1ccccc12` [MK-801, Dizocilpine], the τon-MK-801 in [1] is given as 1,045.30 ± 112.94 ms; in test [2], 765.01 ± 74.13 ms; in [3], 1,988.70 ± 356.79 ms; in test [4], 486.89 ± 100.90 ms; on GluN1-4a/GluN2A, 981.54 ± 19.11 ms; at YFP-GluN1-1a/GluN2A, 1,178.37 ± 93.82 ms. Besides, the τon-MK-801 in test [5] is on record as 3,355.73 ± 243.72 ms; in [6], 846.35 ± 52.08 ms; in [7], 910.61 ± 85.39 ms; in [8] it was 3,010.09 ± 193.67 ms; at YFP-hGluN1-1a/hGluN2A, 789.63 ± 58.54 ms; in [9], 937.85 ± 78.10 ms. Besides, the τon-MK-801 in [10] is given as 278.04 ± 55.79 ms; in test [11] it was 987.68 ± 105.05 ms; at YFP-GluN1-1a/GluN2B, 2,053.21 ± 117.07 ms; in test [12], 1,109.06 ± 65.15 ms; in [13] it was 345.28 ± 25.68 ms; in test [14], 2,040.87 ± 282.26 ms. Further, the τon-MK-801 at YFP-hGluN1-1a/hGluN2B is 2,008.90 ± 224.76 ms; at GluN1-4a/GluN2B, 2,307.47 ± 151.45 ms; in [15] it was 240.25 ± 29.53 ms; in test [16], 1,038.07 ± 140.54 ms; in test [17] it was 2,612.49 ± 167.91 ms.
